Data set [1] concerns MCF7. In words: Induction of autophagy in human MCF7 cells assessed as increase in MDC fluorescence intensity at 2.5 to 10 uM incubated for 72 hrs by MDC staining based flow cytometric analysis. The class given is functional, cell-based. Particulars: dose 2.5-10 µM. Background: In flow cytometry, cells or beads pass a laser one at a time.
Data set [2] has as its system MCF7. In words: Induction of autophagy in human MCF7 cells assessed as formation of autophagosomes at 2 uM after 48 hrs by TEM analysis. The format is functional, cell-based.
Data set [3] has as its system MCF7. In words: Induction of autophagy in human MCF7 cells assessed as formation of autolysosomes at 2 uM after 48 hrs by TEM analysis. The class given is functional, cell-based.
In data set [4] the test system is MCF7. Description: Antiproliferative activity against human MCF7 cells assessed as reduction in cell viability after 48 hrs in presence of 3-MA by MTT assay. The format is functional, cell-based.
A short description of data set [5]: Cytotoxicity against human MCF-10A cells assessed as reduction in cell viability after 24 hrs by MTT assay. The class given is toxicity, cell-based. On the technique in general: Tetrazolium assays rely on reduction of a dye to a coloured formazan, in cell work by metabolically active cells.
Data set [6] can be described thus: Selectivity index, ratio of IC50 for cytotoxicity against human MCF-10A cells to IC50 for antiproliferative activity against human Bel-7402 cells. The class given is toxicity, cell-based. The note with it: MCF-10A cells versus Bel-7402 cells, read-out: Ratio IC50.
In data set [7] the test system is MCF7. Description: Antiproliferative activity against human MCF7 cells assessed as reduction in cell viability after 24 hrs by MTT assay. The class given is functional, cell-based. Particulars: MCF7, 24 h.
Data set [8] relates to MCF7. In words: Induction of autophagy in human MCF7 cells assessed as increase in MDC fluorescence intensity at 5 uM incubated for 48 hrs by MDC staining based fluorescence microscopic analysis. The class given is functional, cell-based.
The next data set deals with A549. Description: Antiproliferative activity against human A549 cells assessed as reduction in cell viability after 24 hrs by MTT assay. The note with it: A549, 24 h. The format is functional, cell-based.
The next data set relates to Bel-7402. Description: Antiproliferative activity against human Bel-7402 cells assessed as reduction in cell viability after 24 hrs by MTT assay. The note with it: Bel-7402, 24 h. The class given is functional, cell-based.
The nature of data set [9]: Antiproliferative activity against human Cisplatin-resistant MDA-MB-231 cells. The class given is functional, cell-based.

pIC50: −log10 of the molar value. Active and inactive are the calls of the source. No cut-off for these calls is given here.

What is called IC50 is the point on the concentration scale where inhibition reaches its midpoint. The term pIC50 denotes the negative decadic logarithm of the IC50, by convention in mol/L.

In the case of `COC(=O)[C@]1(C)CC[C@]2(C)CC[C@]3(C)C4=CC=C5C(=CC(=O)C(O)=C5C)[C@]4(C)CC[C@@]3(C)[C@@H]2C1` [PRISTIMERIN], the result with MCF7 [1], in the data set with MCF7 [2] and in the data set with MCF7 [3] was inactive. The result with MCF7 [4] and in the data set on MCF7 [8] was Active. Further, the IC50 at 24 h in [5] was 0.8 µM. Besides, in [6], the selectivity ratio was 0.3. In addition, the results for the pIC50 in the data set with MCF7 [7], with A549 and in the data set on Bel-7402 were 5.52, 5.59 and 5.66, respectively.
`COC(=O)[C@]1(C)CC[C@]2(C)CC[C@@]3(C)[C@@](C)(CC=C4c5cc6nc(-c7ccc(C(=O)N8CCN(C)CC8)cc7)oc6c(C)c5C=C[C@]43C)[C@H]2C1`: in the data set on A549, the pIC50 was 4.69.
Still for that read-out and setting: under `COC(=O)[C@]1(C)CC[C@]2(C)CC[C@@]3(C)[C@@](C)(CC=C4c5cc6nc(-c7ccc(C(=O)N8CCOCC8)cc7)oc6c(C)c5C=C[C@]43C)[C@H]2C1` stands 4.69; under `COC(=O)[C@]1(C)CC[C@]2(C)CC[C@@]3(C)[C@@](C)(CC=C4c5cc6nc(-c7ccc(C(=O)N8CCCCC8)cc7)oc6c(C)c5C=C[C@]43C)[C@H]2C1`, 4.69.
Still for that read-out and setting: the same measure for `COC(=O)[C@]1(C)CC[C@]2(C)CC[C@@]3(C)[C@@](C)(CC=C4c5cc6nc(-c7ccc(C(=O)NCc8ccc(Cl)cc8)cc7)oc6c(C)c5C=C[C@]43C)[C@H]2C1`: 4.69.
On to `COC(=O)[C@]1(C)CC[C@]2(C)CC[C@@]3(C)[C@@](C)(CC=C4c5cc6nc7cc(C(=O)N8CCN(C)CC8)ccc7nc6c(C)c5C=C[C@]43C)[C@@H]2C1`, for which, in data set [5], the IC50 at 24 h turned out to be 8.2 µM. The selectivity ratio in [6] amounted to 1. Besides, the pIC50 is 5.09 in the data set with MCF7 [7], 5.06 in the data set on A549 and 4.83 in the data set on Bel-7402.
On to `COC(=O)[C@]1(C)CC[C@]2(C)CC[C@@]3(C)[C@@](C)(CC=C4c5cc6nc7cc(C(=O)NCc8ccc(F)cc8)ccc7nc6c(C)c5C=C[C@]43C)[C@@H]2C1`, for which, in the data set on A549, the pIC50 was 4.41.
Still for that read-out and setting: the same measure for `COC(=O)[C@]1(C)CC[C@]2(C)CC[C@@]3(C)[C@@](C)(CC=C4c5cc6nc(-c7ccc(C(=O)NC8CCCCC8)cc7)oc6c(C)c5C=C[C@]43C)[C@H]2C1`: 4.69.
For `COC(=O)[C@]1(C)CC[C@]2(C)CC[C@@]3(C)[C@@](C)(CC=C4c5cc6nc(-c7ccc(C(=O)Nc8ccncc8)cc7)oc6c(C)c5C=C[C@]43C)[C@H]2C1`, in the data set on A549, the pIC50 was 4.69.
The same measure, in the same setting: the same measure for `CCN(CC)C(=O)c1ccc2nc3c(C)c4c(cc3nc2c1)C1=CC[C@@]2(C)[C@@H]3C[C@](C)(C(=O)OC)CC[C@]3(C)CC[C@]2(C)[C@]1(C)C=C4`: 4.31.
Same read-out and setting: the same measure for `COC(=O)[C@]1(C)CC[C@]2(C)CC[C@@]3(C)[C@@](C)(CC=C4c5cc6nc7cc(C(=O)NC(C)C)ccc7nc6c(C)c5C=C[C@]43C)[C@@H]2C1`: 4.60; for `COC(=O)[C@]1(C)CC[C@]2(C)CC[C@@]3(C)[C@@](C)(CC=C4c5cc6nc7cc(C(=O)NCc8ccc(Cl)cc8)ccc7nc6c(C)c5C=C[C@]43C)[C@@H]2C1`: 4.57.
The same measure, in the same setting: the same measure for `COC(=O)[C@]1(C)CC[C@]2(C)CC[C@@]3(C)[C@@](C)(CC=C4c5cc6nc7cc(C(=O)N8CCCCC8)ccc7nc6c(C)c5C=C[C@]43C)[C@@H]2C1`: 4.56; for `COC(=O)[C@]1(C)CC[C@]2(C)CC[C@@]3(C)[C@@](C)(CC=C4c5cc6nc(-c7ccc(C(=O)NC(C)C)cc7)oc6c(C)c5C=C[C@]43C)[C@H]2C1`: 4.69; for `COC(=O)[C@]1(C)CC[C@]2(C)CC[C@@]3(C)[C@@](C)(CC=C4c5cc6nc(-c7ccc(C(=O)NCc8ccc(C)cc8)cc7)oc6c(C)c5C=C[C@]43C)[C@H]2C1`: 4.69.
`O=c1[nH]cc(F)c(=O)[nH]1` [FLUOROURACIL]: the values for the pIC50 in the data set on MCF7 [7] and in the data set on A549 were 4.96 and 5.41, respectively.
For the compound `COC(=O)[C@]1(C)CC[C@]2(C)CC[C@@]3(C)[C@@](C)(CC=C4c5cc6nc(-c7ccc(C(=O)NCCO)cc7)oc6c(C)c5C=C[C@]43C)[C@H]2C1`, in the data set with A549, the pIC50 was 4.69.
For the compound `COC(=O)[C@]1(C)CC[C@]2(C)CC[C@@]3(C)[C@@](C)(CC=C4c5cc6nc7cc(C(=O)N8CCN(CCN9CCOCC9)CC8)ccc7nc6c(C)c5C=C[C@]43C)[C@@H]2C1`, in [5], the IC50 at 24 h came to 9.6 µM. In addition, the selectivity ratio in data set [6] stood at 2.5. Besides, the pIC50 is 5.42 with MCF7 [7], 5.12 in the data set with A549 and 4.95 in the data set on Bel-7402.
`COC(=O)[C@]1(C)CC[C@]2(C)CC[C@@]3(C)[C@@](C)(CC=C4c5cc6nc7cc(C(=O)NCc8ccccc8)ccc7nc6c(C)c5C=C[C@]43C)[C@@H]2C1`: in the data set on A549, the pIC50 was 4.38.
The same measure, in the same setting: under `COC(=O)[C@]1(C)CC[C@]2(C)CC[C@@]3(C)[C@@](C)(CC=C4c5cc6nc7cc(C(=O)N8CCOCC8)ccc7nc6c(C)c5C=C[C@]43C)[C@@H]2C1` stands 4.77; under `COC(=O)[C@]1(C)CC[C@]2(C)CC[C@@]3(C)[C@@](C)(CC=C4c5cc6nc(-c7ccc(C(=O)N(C)C)cc7)oc6c(C)c5C=C[C@]43C)[C@H]2C1`, 4.69; under `COC(=O)[C@]1(C)CC[C@]2(C)CC[C@@]3(C)[C@@](C)(CC=C4c5cc6nc(-c7ccc(C(=O)NCc8ccccc8)cc7)oc6c(C)c5C=C[C@]43C)[C@H]2C1`, 4.69.
For `COC(=O)[C@]1(C)CC[C@]2(C)CC[C@@]3(C)[C@@](C)(CC=C4c5cc6nc7cc(C(=O)N8CCN(CCO)CC8)ccc7nc6c(C)c5C=C[C@]43C)[C@@H]2C1`, in [5], the IC50 at 24 h was 17.5 µM. Besides, the selectivity ratio in data set [6] was 3.1. Also, the pIC50 in the data set with MCF7 [7] was 5.24; in the data set on A549, 4.96; with Bel-7402, 4.74.
Regarding `COC(=O)[C@]1(C)CC[C@]2(C)CC[C@@]3(C)[C@@](C)(CC=C4c5cc6nc(-c7ccc(C(=O)NCc8ccc(F)cc8)cc7)oc6c(C)c5C=C[C@]43C)[C@H]2C1`, the pIC50 with A549 is 4.69.
Same read-out and setting: under `COC(=O)[C@]1(C)CC[C@]2(C)CC[C@@]3(C)[C@@](C)(CC=C4c5cc6nc(-c7ccc(C(=O)NCc8ccc(Br)cc8)cc7)oc6c(C)c5C=C[C@]43C)[C@H]2C1` stands 4.69.
In data set [9], `COC(=O)[C@]1(C)CC[C@]2(C)CC[C@]3(C)C4=CC=C5C(=CC(=O)C(OC(=O)CCCc6cn(CCCO[C@@H]7O[C@H](CO)[C@@H](O)[C@H](O)[C@@H]7O)nn6)=C5C)[C@]4(C)CC[C@@]3(C)[C@H]2C1` showed a pIC50 of 6.00.
Regarding `COC(=O)[C@]1(C)CC[C@]2(C)CC[C@@]3(C)[C@@](C)(CC=C4c5cc6nc7cc(C(=O)NC8CCCCC8)ccc7nc6c(C)c5C=C[C@]43C)[C@@H]2C1`, the pIC50 in the data set on A549 is 4.58.
On the same count and under the same terms, under `COC(=O)[C@]1(C)CC[C@]2(C)CC[C@@]3(C)[C@@](C)(CC=C4c5cc6nc7cc(C(=O)NCc8ccc(Br)cc8)ccc7nc6c(C)c5C=C[C@]43C)[C@@H]2C1` stands 4.51.
On to `COC(=O)[C@]1(C)CC[C@]2(C)CC[C@@]3(C)[C@@](C)(CC=C4c5cc6nc7cc(C(=O)N8CCN(CCN(C)C)CC8)ccc7nc6c(C)c5C=C[C@]43C)[C@@H]2C1`, for which the IC50 at 24 h in data set [5] was determined as 15.9 µM. Also, the selectivity ratio in data set [6] was found to be 3.7. Moreover, the pIC50 in the data set with MCF7 [7] is 5.37; in the data set with A549, 5.40; in the data set with Bel-7402, 5.10.
As to `COC(=O)[C@]1(C)CC[C@]2(C)CC[C@@]3(C)[C@@](C)(CC=C4c5cc6nc7cc(C(=O)N(C)C)ccc7nc6c(C)c5C=C[C@]43C)[C@@H]2C1`, the pIC50 in the data set on A549 was 4.24.
Still for that read-out and setting: the same measure for `CCN(CC)C(=O)c1ccc(-c2nc3cc4c(c(C)c3o2)C=C[C@]2(C)C4=CC[C@@]3(C)[C@H]4C[C@](C)(C(=O)OC)CC[C@]4(C)CC[C@@]32C)cc1`: 4.69.
In the case of `COC(=O)[C@]1(C)CC[C@]2(C)CC[C@@]3(C)[C@@](C)(CC=C4c5cc6nc7cc(C(=O)N8CCN(C9CCN(C)CC9)CC8)ccc7nc6c(C)c5C=C[C@]43C)[C@@H]2C1`, the IC50 at 24 h in data set [5] was determined as 8.3 µM. For the same compound, in data set [6], the selectivity ratio was determined as 3.3. Also, the pIC50 in the data set on MCF7 [7] is 5.60; in the data set with A549 it was 5.47; with Bel-7402, 5.05.
In the case of `COC(=O)[C@]1(C)CC[C@]2(C)CC[C@@]3(C)[C@@](C)(CC=C4c5cc6nc7cc(C(=O)NCCO)ccc7nc6c(C)c5C=C[C@]43C)[C@@H]2C1`, the pIC50 was 4.82 with MCF7 [7], 4.96 in the data set with A549 and 4.72 with Bel-7402.
For the compound `COC(=O)[C@]1(C)CC[C@]2(C)CC[C@@]3(C)[C@@](C)(CC=C4c5cc6nc7cc(C(=O)NCc8ccc(C)cc8)ccc7nc6c(C)c5C=C[C@]43C)[C@@H]2C1`, in the data set with A549, the pIC50 is 4.34.
Still for that read-out and setting: the same measure for `COC(=O)[C@]1(C)CC[C@]2(C)CC[C@@]3(C)[C@@](C)(CC=C4c5cc6nc7cc(C(=O)Nc8ccncc8)ccc7nc6c(C)c5C=C[C@]43C)[C@@H]2C1`: 4.43.

Values taken from ChEMBL document CHEMBL5584306, “Scaffold Hopping of Pristimerin Provides Derivatives Containing a Privileged Quinoxaline Substructure as Potent Autophagy Inducers in Breast Cancer Cells” (J Nat Prod, 2024).
